Experimental data as given in ChEMBL document CHEMBL1795257, “Synthesis of new opioid derivatives with a propellane skeleton and their pharmacology: part 1” (Bioorg Med Chem Lett, 2011).
Calls of active or inactive are those of the source. The calls are words filed in the database; no cut-off is given here.

Assays:
[1] = Displacement of [3H]NTI from delta opioid receptor in guinea pig forebrain homogenate by scintillation counting; assay type: tissue-based, Cavia porcellus, Brain
Cavia porcellus = species: Cavia porcellus; test: Selectivity ratio of Ki for delta opioid receptor in guinea pig forebrain homogenate to Ki for kappa opioid receptor in guinea pig cerebellum homogenate; assay type: tissue-based
Mu-type opioid receptor = Mu-type opioid receptor (Cavia porcellus, UniProt P97266); test: Displacement of [3H]DAMGO from mu opioid receptor in guinea pig forebrain homogenate by scintillation counting; assay type: tissue-based, Brain
[2] = target: Kappa-type opioid receptor (Cavia porcellus, UniProt P41144); test: Displacement of [3H]U69593 from kappa opioid receptor in guinea pig cerebellum homogenate by scintillation counting; assay type: tissue-based
Mus musculus [3] = test: Antinociceptive activity in sc dosed mouse assessed as inhibition of acetic acid-induced writhing; assay type: functional
Mus musculus [4] = test: Antinociceptive activity in sc dosed mouse assessed as inhibition of acetic acid-induced writhing in presence of mu opioid […] naloxone; assay type: functional, organism-based
Mus musculus [5] = test: Antinociceptive activity in sc dosed mouse assessed as inhibition of acetic acid-induced writhing in presence of kappa opioid antagonist nor-BNI; assay type: functional, organism-based

Kappa-type opioid receptor, sequence (P41144 whole entry): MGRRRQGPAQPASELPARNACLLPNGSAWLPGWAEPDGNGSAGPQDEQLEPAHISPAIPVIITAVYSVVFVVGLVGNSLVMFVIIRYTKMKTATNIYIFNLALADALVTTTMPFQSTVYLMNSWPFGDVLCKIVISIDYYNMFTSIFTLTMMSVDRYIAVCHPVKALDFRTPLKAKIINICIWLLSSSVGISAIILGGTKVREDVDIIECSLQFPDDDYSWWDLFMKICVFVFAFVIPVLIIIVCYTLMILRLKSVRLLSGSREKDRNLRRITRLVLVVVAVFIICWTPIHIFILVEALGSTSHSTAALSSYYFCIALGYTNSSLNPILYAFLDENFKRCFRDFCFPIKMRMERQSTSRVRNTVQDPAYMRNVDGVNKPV
Mu-type opioid receptor, sequence (P97266 whole entry): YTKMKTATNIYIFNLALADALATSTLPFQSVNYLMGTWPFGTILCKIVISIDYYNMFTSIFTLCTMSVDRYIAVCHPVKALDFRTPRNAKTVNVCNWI

| Structure (SMILES) | Ki [1] | Ratio Ki (Cavia porcellus) | Ki (Mu-type opioid receptor) | Ki [2] | Activity (Mus musculus [3]) | Activity (Mus musculus [4]) | ED50 (Mus musculus [3]) | Activity (Mus musculus [5]) |
| --- | --- | --- | --- | --- | --- | --- | --- | --- |
| CN1CC[C@]23c4c5ccc(O)c4O[C@H]2C(=O)CC[C@@]3(O)[C@H]1C5 [OXYMORPHONE] | 42.7 nM |  |  |  |  |  |  |  |
| OCC12CC[C@@]3(O1)[C@H]1Cc4ccc(O)cc4[C@@]3(CCN1CC1CC1)C2 |  | 35 |  |  |  |  |  |  |
| CC(C)=CCN1CC[C@@]2(C)c3cc(O)ccc3C[C@@H]1[C@@H]2C | 23.1 nM | 6.4 | 4.6 nM | 3.6 nM |  |  |  |  |
| CN1CC[C@]23c4c5ccc(O)c4O[C@H]2[C@@H](O)C=C[C@H]3[C@H]1C5 |  |  |  |  | Active |  |  |  |
| Oc1ccc2c3c1OC1C4(O)CC[C@@]5(OC4)[C@@H](C2)N(CC2CC2)CC[C@]315 (some centres undefined) | 10.3 nM | 30 | 0.16 nM | 0.34 nM |  |  |  |  |
| O=C1CC23CCN(CC4CC4)C(Cc4ccc(O)cc42)C32CCC1O2 (centres undefined) |  | 30 |  |  |  |  |  |  |
| O=C1CCC23Cc4ccc(O)cc4C2(CCN(CC2CC2)C3)C1 (centres undefined) | 448 nM | 26 | 58.2 nM | 17.4 nM |  | inactive | 0.86 mg/kg | inactive |
| CN1CCC23CC(=O)CCC2(Cc2ccc(O)cc23)C1 (centres undefined) | 441 nM | 1.7 | 3.6 nM | 255 nM |  |  |  |  |
| O=C1CC[C@@]2(O)[C@H]3Cc4ccc(O)c5c4[C@@]2(CCN3CC2CC2)[C@H]1O5 |  | 56 |  |  |  |  |  |  |
| O=C1CC[C@@]2(O)[C@H]3Cc4ccc(O)cc4[C@@]2(CCN3CC2CC2)C1 | 1.82 nM | 48 | 0.14 nM | 0.038 nM |  |  |  |  |
| O=C1CCC23Cc4ccc(O)cc4C2(CCN(CC2(O)CC2)C3)C1 (centres undefined) | 500 nM | 23 | 77.7 nM | 21.7 nM |  |  |  |  |
| CCC12CCN(CC3(O)CC3)[C@H](Cc3ccc(O)cc31)C2(C)C | 0.9 nM |  | 0.2 nM |  |  |  |  |  |
